# Assay results as given in ChEMBL document CHEMBL5055650, “4-Acyl Pyrrole Capped HDAC Inhibitors: A New Scaffold for Hybrid Inhibitors of BET Proteins and Histone Deacetylases as Antileukemia Drug Leads” (J Med Chem, 2021).
# Calls of active or inactive are those of the source. No cut-off for these calls is given here.
# Legend:
# [1] = target: T1, Bromodomain-containing protein 7 (Homo sapiens, UniProt Q9NPI1); assay: Binding affinity to human BRD7 assessed as dissociation constant by isothermal titration calorimetry assay
# T1 sequence (Q9NPI1 whole entry): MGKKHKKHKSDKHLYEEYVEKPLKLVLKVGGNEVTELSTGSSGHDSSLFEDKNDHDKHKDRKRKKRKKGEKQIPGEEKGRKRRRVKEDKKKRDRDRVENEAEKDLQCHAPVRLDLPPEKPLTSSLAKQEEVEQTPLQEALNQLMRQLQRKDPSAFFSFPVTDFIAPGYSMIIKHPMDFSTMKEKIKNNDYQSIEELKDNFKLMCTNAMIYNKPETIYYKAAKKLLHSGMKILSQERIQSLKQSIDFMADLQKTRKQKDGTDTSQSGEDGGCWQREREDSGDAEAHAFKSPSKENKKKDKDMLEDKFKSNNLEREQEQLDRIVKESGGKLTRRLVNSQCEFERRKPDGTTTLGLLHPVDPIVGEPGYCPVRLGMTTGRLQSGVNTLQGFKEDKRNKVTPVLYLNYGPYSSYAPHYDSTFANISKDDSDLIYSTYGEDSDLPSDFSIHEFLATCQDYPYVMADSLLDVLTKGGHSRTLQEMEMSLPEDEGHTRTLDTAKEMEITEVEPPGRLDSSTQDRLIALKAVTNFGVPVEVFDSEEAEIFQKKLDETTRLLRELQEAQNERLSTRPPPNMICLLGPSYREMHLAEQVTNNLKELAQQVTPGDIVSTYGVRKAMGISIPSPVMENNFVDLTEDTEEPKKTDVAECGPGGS
# HPBALL [2] = assay: Induction of apoptosis in human HPBALL cells assessed as increase in apoptotic cells at 5 uM after 48 hrs by using annexin V/PI followed by flow cytometry; assay type: functional, cell-based
# K562 = assay: Induction of apoptosis in human K562 cells assessed as apoptosis at 2.9 uM after 24 to 72 hrs using annexin V/PI followed by flow cytometry; assay type: functional, cell-based; details: time 24-72 hrs
# HPBALL [3] = assay: Induction of apoptosis in human HPBALL cells assessed as increase in apoptotic cells at 5 uM after 24 hrs using annexin V/PI followed by flow cytometry; assay type: functional, cell-based
# HPBALL [4] = assay: Induction of apoptosis in human HPBALL cells assessed as increase in apoptotic cells at 5 uM after 72 hrs using annexin V/PI followed by flow cytometry; assay type: functional, cell-based
# HPBALL [5] = assay: Induction of apoptosis in human HPBALL cells assessed as increase in caspase3/7 activity at 5 uM after 48 hrs by luminescent based Glo assay; assay type: functional, cell-based
# [6] = target: Bromodomain-containing protein 3 (Homo sapiens, UniProt Q15059); assay: Binding affinity to human BRD3 domain 1 assessed as dissociation constant by isothermal titration calorimetry assay
# Chain of Bromodomain-containing protein 3 (Q15059 whole entry, the tested form may be a part): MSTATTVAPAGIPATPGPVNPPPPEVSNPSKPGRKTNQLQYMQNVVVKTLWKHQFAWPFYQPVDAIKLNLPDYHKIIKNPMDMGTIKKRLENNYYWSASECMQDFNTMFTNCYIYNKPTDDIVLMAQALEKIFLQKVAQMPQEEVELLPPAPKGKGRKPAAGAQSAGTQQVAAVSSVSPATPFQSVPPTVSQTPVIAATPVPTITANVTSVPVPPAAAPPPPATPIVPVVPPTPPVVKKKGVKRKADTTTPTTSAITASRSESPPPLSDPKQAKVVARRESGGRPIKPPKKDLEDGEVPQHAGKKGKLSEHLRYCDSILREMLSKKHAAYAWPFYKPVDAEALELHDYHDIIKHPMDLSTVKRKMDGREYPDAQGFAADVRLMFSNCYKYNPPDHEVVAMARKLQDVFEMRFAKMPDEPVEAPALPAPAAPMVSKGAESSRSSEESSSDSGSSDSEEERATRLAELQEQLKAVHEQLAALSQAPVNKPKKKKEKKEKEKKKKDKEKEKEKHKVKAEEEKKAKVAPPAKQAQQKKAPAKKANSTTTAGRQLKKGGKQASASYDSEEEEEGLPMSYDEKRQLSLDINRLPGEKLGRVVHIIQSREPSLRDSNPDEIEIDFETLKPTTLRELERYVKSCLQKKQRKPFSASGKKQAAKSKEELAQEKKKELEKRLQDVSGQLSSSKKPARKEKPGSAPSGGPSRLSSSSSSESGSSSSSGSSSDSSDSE
# Danio rerio [7] = assay: Toxicity in zebrafish embryos assessed as pericardial edema at 0.5 uM after 72 hrs by visual analysis (reference value: 10%); assay type: organism-based, Embryo; details: in vivo
# HPBALL [8] = assay: Anticancer activity against human HPBALL cells assessed as reduction in total number of colony forming units at 5 uM measured after 24 hrs by colony formation assay; assay type: functional, cell-based
# Danio rerio [9] = species: Danio rerio; assay: Toxicity in zebrafish embryos assessed as brain hemorrhage at 50 uM after 72 hrs by visual analysis (reference value: 0%); assay type: organism-based; details: in vivo
# Danio rerio [10] = species: Danio rerio; assay: Toxicity in zebrafish embryos assessed as tail necrosis at 0.5 uM after 72 hrs by visual analysis (reference value: 0%); assay type: organism-based; details: in vivo
# Danio rerio [11] = species: Danio rerio; assay: Toxicity in zebrafish embryos assessed as small eyes at 0.005 uM after 72 hrs by visual analysis (reference value: 10%); assay type: organism-based, Embryo; details: in vivo
# Danio rerio [12] = species: Danio rerio; assay: Toxicity in zebrafish embryos assessed as brain hemorrhage at 0.005 uM after 72 hrs by visual analysis (reference value: 0%); assay type: organism-based; details: in vivo
# Danio rerio [13] = species: Danio rerio; assay: Toxicity in zebrafish embryos assessed as head necrosis at 0.05 uM after 72 hrs by visual analysis (reference value: 0%); assay type: organism-based; details: in vivo
# Danio rerio [14] = species: Danio rerio; assay: Toxicity in zebrafish embryos assessed as malformation of tail at 0.005 uM after 72 hrs by visual analysis (reference value: 5%); assay type: organism-based; details: in vivo
# [15] = Nonlethal toxicity in zebrafish embryos assessed as embryo survival at 50 uM after 72 hrs by visual analysis (reference value: 100%); assay type: organism-based, Danio rerio; details: in vivo
# Danio rerio [16] = species: Danio rerio; assay: Toxicity in zebrafish embryos assessed as tail necrosis at 0.005 uM after 72 hrs by visual analysis (reference value: 0%); assay type: organism-based; details: in vivo
# Danio rerio [17] = species: Danio rerio; assay: Toxicity in zebrafish embryos assessed as malformation of tail at 0.05 uM after 72 hrs by visual analysis (reference value: 5%); assay type: organism-based; details: in vivo
# Danio rerio [18] = species: Danio rerio; assay: Toxicity in zebrafish embryos assessed as tail necrosis at 5 uM after 72 hrs by visual analysis (reference value: 0%); assay type: organism-based; details: in vivo
# Danio rerio [19] = species: Danio rerio; assay: Toxicity in zebrafish embryos assessed as teratogenesis at 50 uM after 72 hrs by visual analysis (reference value: 0%); assay type: organism-based, Embryo; details: in vivo
# Danio rerio [20] = species: Danio rerio; assay: Toxicity in zebrafish embryos assessed as teratogenesis at 0.005 uM after 72 hrs by visual analysis (reference value: 0%); assay type: organism-based, Embryo; details: in vivo
# [21] = Nonlethal toxicity in zebrafish embryos assessed as embryo survival at 0.5 uM after 72 hrs by visual analysis (reference value: 100%); assay type: organism-based, Danio rerio; details: in vivo
# Danio rerio [22] = species: Danio rerio; assay: Toxicity in zebrafish embryos assessed as head necrosis at 50 uM after 72 hrs by visual analysis (reference value: 0%); assay type: organism-based; details: in vivo
# Danio rerio [23] = species: Danio rerio; assay: Toxicity in zebrafish embryos assessed as cardiac teratogenesis/necrosis at 50 uM after 72 hrs by visual analysis (reference value: 0%); assay type: organism-based, Embryo; details: in vivo
# Danio rerio [24] = assay: Toxicity in zebrafish embryos assessed as yolk sac edema at 50 uM after 72 hrs by visual analysis (reference value: 0%); assay type: organism-based, Embryo; details: in vivo
# Danio rerio [25] = species: Danio rerio; assay: Toxicity in zebrafish embryos assessed as malformation of tail at 5 uM after 72 hrs by visual analysis (reference value: 5%); assay type: organism-based; details: in vivo
# Danio rerio [26] = species: Danio rerio; assay: Toxicity in zebrafish embryos assessed as malformation of head at 5 uM after 72 hrs by visual analysis (reference value: 0%); assay type: organism-based; details: in vivo
# [27] = Nonlethal toxicity in zebrafish embryos assessed as embryo survival at 0.005 uM after 72 hrs by visual analysis (reference value: 100%); assay type: organism-based, Danio rerio; details: in vivo
# Danio rerio [28] = species: Danio rerio; assay: Toxicity in zebrafish embryos assessed as malformation of head at 0.5 uM after 72 hrs by visual analysis (reference value: 0%); assay type: organism-based; details: in vivo
# Danio rerio [29] = species: Danio rerio; assay: Toxicity in zebrafish embryos assessed as small eyes at 0.05 uM after 72 hrs by visual analysis (reference value: 10%); assay type: organism-based, Embryo; details: in vivo
# Danio rerio [30] = assay: Toxicity in zebrafish embryos assessed as yolk sac edema at 5 uM after 72 hrs by visual analysis (reference value: 0%); assay type: organism-based, Embryo; details: in vivo
# Danio rerio [31] = species: Danio rerio; assay: Toxicity in zebrafish embryos assessed as small eyes at 50 uM after 72 hrs by visual analysis (reference value: 10%); assay type: organism-based, Embryo; details: in vivo
# Danio rerio [32] = species: Danio rerio; assay: Toxicity in zebrafish embryos assessed as cardiac teratogenesis/necrosis at 5 uM after 72 hrs by visual analysis (reference value: 0%); assay type: organism-based, Embryo; details: in vivo
# [33] = Nonlethal toxicity in zebrafish embryos assessed as embryo survival at 5 uM after 72 hrs by visual analysis (reference value: 100%); assay type: organism-based, Danio rerio; details: in vivo
# Danio rerio [34] = species: Danio rerio; assay: Toxicity in zebrafish embryos assessed as cardiac teratogenesis/necrosis at 0.005 uM after 72 hrs by visual analysis (reference value: 0%); assay type: organism-based, Embryo; details: in vivo
# Danio rerio [35] = species: Danio rerio; assay: Toxicity in zebrafish embryos assessed as malformation of head at 0.005 uM after 72 hrs by visual analysis (reference value: 0%); assay type: organism-based; details: in vivo
smiles,measurement,setting,value
COc1ccc(S(=O)(=O)n2ccc(/C=C/C(=O)NO)c2)cc1NC(=O)c1[nH]c(C)c2c1CCCCC2=O,Kd,[1],230 nM
same,Activity,HPBALL [2],Active
same,Activity,K562,Active
same,Activity,HPBALL [3],Active
same,Activity,HPBALL [4],Active
same,Activity,HPBALL [5],Active
same,Kd,[6],1500 nM
CCc1c(C(=O)Nc2cc(/C=C/C(=O)NO)ccc2OC)[nH]c(C)c1C(C)=O,Kd,[1],8500 nM
same,Activity,HPBALL [2],Active
same,Activity,HPBALL [3],Active
same,Activity,HPBALL [4],inactive
same,inhibition,HPBALL [5],Active
same,Kd,[6],5650 nM
Cc1[nH]c(C(=O)Nc2cc(S(=O)(=O)N3CCOCC3)ccc2OCCCCCCCC(=O)NO)c2c1C(=O)CCCC2,Activity,Danio rerio [7],20%
same,Activity,HPBALL [8],Active
same,Activity,Danio rerio [9],0%
same,Activity,Danio rerio [10],0%
same,Activity,Danio rerio [11],10%
same,Activity,Danio rerio [12],0%
same,Activity,Danio rerio [13],0%
same,Activity,Danio rerio [14],5%
same,"survival at 72 h, 50 µM",[15],100%
same,Activity,Danio rerio [16],15%
same,Activity,Danio rerio [17],0%
same,Activity,Danio rerio [18],0%
same,Activity,Danio rerio [19],0%
same,Activity,Danio rerio [20],15%
same,Kd,[1],125 nM
same,"survival at 72 h, 0.5 µM",[21],100%
same,Activity,Danio rerio [22],15%
same,Activity,Danio rerio [23],0%
same,Activity,Danio rerio [24],10%
same,Activity,Danio rerio [25],10%
same,Activity,HPBALL [5],Active
same,Activity,Danio rerio [26],0%
same,"survival at 72 h, 0.005 µM",[27],100%
same,Activity,Danio rerio [28],15%
same,Activity,Danio rerio [29],5%
same,Activity,Danio rerio [30],0%
same,Activity,Danio rerio [31],10%
same,Activity,Danio rerio [32],40%
same,"survival at 72 h, 5 µM",[33],95%
same,Activity,Danio rerio [34],0%
same,Kd,[6],37 nM
same,Activity,Danio rerio [35],15%
